From the supplement of paper PMC11451515

How the values were obtained:
Assay in all cases: AUC of viability dose-response curve (% viability x log10 dose units); higher = less sensitive
Conditions in all cases: 48 h
NOMO1 = test system: NOMO1
Summary of the method: (§1)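 Leukemia cells adapted to each medium (500 or 1000 cells/well, 1536-well plates) were exposed to library compounds in DMSO for 48 h at 37°C at 11 threefold doses, 47 μM to 0.79 nM. Luminescence by CellTiter-Glo One was normalised per plate to DMSO and cell-free wells, then fitted with a four-parameter log-logistic curve on log10 dose. Curves above full viability were scaled and quality-control failures removed before area under the curve was integrated by trapezoidal rule.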

P12-Ichikawa = test system: P12-Ichikawa
Summary of the method: as §1

SEM cells = test system: SEM cells
Summary of the method: as §1

[1] = RPMI 5 mM glucose + 10% dialyzed FBS

SMILES | AUC of viability dose-response curve (NOMO1; HPLM + 10% dialyzed FBS) | AUC of viability dose-response curve (NOMO1; RPMI 5 mM glucose + 10% FBS) | AUC of viability dose-response curve (NOMO1; [1]) | AUC of viability dose-response curve (P12-Ichikawa; HPLM + 10% dialyzed FBS) | AUC of viability dose-response curve (P12-Ichikawa; RPMI 5 mM glucose + 10% FBS) | AUC of viability dose-response curve (P12-Ichikawa; [1]) | AUC of viability dose-response curve (SEM cells; HPLM + 10% dialyzed FBS) | AUC of viability dose-response curve (SEM cells; RPMI 5 mM glucose + 10% FBS) | AUC of viability dose-response curve (SEM cells; [1])
Cc1ccc2c(c1)c1c(n2CCc2ccc(C)nc2)CCN(C)C1 | 447 | 458 | 472 | 459 | 465 | 469 | 472 | 471 | 474
CC(C)C[C@H](NC(=O)[C@@H](O)[C@H](N)Cc1ccccc1)C(=O)O | 451 | 447 | 439 | 463 | 447 | 452 | 453 | 455 | 454
CNC(=O)C1=CC=C(C)C(=C1)N2C(=C/C(=C(/Br)C2=O)OCC3=C(F)C=C(F)C=C3)\C | 465 | 456 | 466 | 474 | 466 | 464 | 461 | 465 | 455
C[S+](=O)([O-])c1ccc(Oc2cc(F)cc(C#N)c2)c2c1[C@H](O)C(F)(F)C2 | 455 | 462 | 448 | 467 | 469 | 472 | 467 | 459 | 467
CCOc1ccc(Cc2cc([C@@H]3O[C@H](CO)[C@@H](O)[C@H](O)[C@H]3O)ccc2Cl)cc1 | 470 | 464 | 476 | 459 | 466 | 469 | 465 | 450 | 468
CN1CCN(CCCN2c3ccccc3Sc3ccc(C(F)(F)F)cc32)CC1 | 379 | 357 | 384 | 426 | 423 | 456 | 447 | 451 | 463
CN1CCN(C(=O)O[C@H]2c3nccnc3C(=O)N2c2ccc(Cl)cn2)CC1 | 451 | 467 | 464 | 468 | 461 | 470 | 453 | 450 | 445
CN1CCN(CCOc2cc(OC3CCOCC3)c3c(Nc4c(Cl)ccc5c4OCO5)ncnc3c2)CC1 | 428 | 463 | 459 | 410 | 446 | 429 | 416 | 378 | 391
C=CCc1ccc(O)c(-c2ccc(O)c(CC=C)c2)c1 | 419 | 388 | 382 | 251 | 331 | 319 | 377 | 308 | 345
COc1cccc2c1CCCC2CCCN1CCN(C2CCCCC2)CC1 (configuration not stated) | 462 | 457 | 450 | 469 | 459 | 460 | 427 | 428 | 454
CNC(=O)CN1CCC(Oc2cc3c(Nc4cccc(Cl)c4F)ncnc3cc2OC)CC1 | 320 | 302 | 325 | 364 | 356 | 374 | 457 | 469 | 469
N#C[C@H](O[C@@H]1O[C@H](CO[C@@H]2O[C@H](CO)[C@@H](O)[C@H](O)[C@H]2O)[C@@H](O)[C@H](O)[C@H]1O)c1ccccc1 | 454 | 435 | 448 | 454 | 446 | 427 | 462 | 452 | 452
CN(C)C(=O)C(CCN1CCC(O)(c2ccc(Cl)cc2)CC1)(c1ccccc1)c1ccccc1 | 448 | 445 | 436 | 460 | 444 | 444 | 445 | 436 | 449
NC(=O)c1ncn([C@@H]2O[C@H](CO)[C@@H](O)[C@H]2O)c1O | 465 | 468 | 460 | 464 | 463 | 464 | 473 | 474 | 457
N#C/C(C(=O)c1ccc(Cl)cc1Cl)=C1/NC(=O)c2ccc(Cl)cc2N1 | 453 | 453 | 456 | 451 | 440 | 463 | 459 | 449 | 454
CCOC1=CC=CC=C1N\2C(=O)C3=C(C=CC=C3)\N=C2C(C)N4CCN(CC4)C(=O)COC5=CC=C(Cl)C=C5 (configuration not stated) | 304 | 330 | 357 | 303 | 327 | 320 | 323 | 280 | 297
CCOC(=O)Nc1ccc(NCc2ccc(F)cc2)nc1N | 439 | 469 | 469 | 456 | 451 | 464 | 467 | 466 | 461
N[S+](=O)([O-])OC[C@@H]1C[C@@H](n2ccc3c(N[C@H]4CCc5ccccc54)ncnc32)C[C@@H]1O | 319 | 300 | 313 | 373 | 352 | 352 | 352 | 346 | 339
NC/1=N/C(=O)N(/C=N1)[C@@H]2O[C@H](CO)[C@@H](O)[C@H]2O | 430 | 421 | 396 | 422 | 437 | 428 | 406 | 399 | 322
CC(C)[C@H](N)C(=O)OCCOC[N]1C=NC2=C1\N=C(N)/NC2=O | 457 | 459 | 474 | 475 | 450 | 458 | 467 | 457 | 465
COC1=CC=C2/C3=N/CCN3\C(=N/C2=C1OC)NC(=O)C4=CC=CN=C4 | 427 | 462 | 402 | 457 | 427 | 439 | 452 | 419 | 422
OC(CN1CCN(c2cccc(Cl)c2)CC1)C(c1ccccc1)c1ccccc1 (configuration not stated) | 265 | 324 | 341 | 238 | 318 | 307 | 319 | 252 | 257
COc1ncc(-c2ccc3c(Nc4cc(Oc5cc(F)cc(F)c5)cc(C(=O)O)c4)c([S+](=O)([O-])NC4CC4)cnc3c2)c(OC)n1 | 442 | 440 | 428 | 433 | 405 | 401 | 387 | 457 | 414
